Test results from US9545120B2, “Method of lowering glycemic index of foods” (BASF SE, priority 2002, dated 2017).
Where two headings read alike, the source gives them in different places.

Assays:
[1] = target: T1, Alpha-amylase from porcine pancreas (Sus scrofa, UniProt P00690); experiment: Alpha-amylase assay; assay type: biochemical; details: for remaining activity at 11.7 µg/mL / remaining activity at 23.4 µg/mL / remaining activity at 46.9 µg/mL / remaining activity at 93.8 µg/mL / remaining activity at 187.5 µg/mL / remaining activity at 375 µg/mL / remaining activity at 750 µg/mL: read-out: alpha-amylase % control; for inhibition at 11.7 µg/mL / inhibition at 23.4 µg/mL / inhibition at 46.9 µg/mL / inhibition at 93.8 µg/mL / inhibition at 187.5 µg/mL / inhibition at 375 µg/mL / inhibition at 750 µg/mL: read-out: alpha-amylase % inhibition; for inhibition at 1600 µM: read-out: % inhibition of alpha-amylase at flavonoid concentration 1.6 mM (454 μg/mL)
T1 construct: purchased Sigma; host or cells: porcine pancreas
T1 sequence (P00690 16-511): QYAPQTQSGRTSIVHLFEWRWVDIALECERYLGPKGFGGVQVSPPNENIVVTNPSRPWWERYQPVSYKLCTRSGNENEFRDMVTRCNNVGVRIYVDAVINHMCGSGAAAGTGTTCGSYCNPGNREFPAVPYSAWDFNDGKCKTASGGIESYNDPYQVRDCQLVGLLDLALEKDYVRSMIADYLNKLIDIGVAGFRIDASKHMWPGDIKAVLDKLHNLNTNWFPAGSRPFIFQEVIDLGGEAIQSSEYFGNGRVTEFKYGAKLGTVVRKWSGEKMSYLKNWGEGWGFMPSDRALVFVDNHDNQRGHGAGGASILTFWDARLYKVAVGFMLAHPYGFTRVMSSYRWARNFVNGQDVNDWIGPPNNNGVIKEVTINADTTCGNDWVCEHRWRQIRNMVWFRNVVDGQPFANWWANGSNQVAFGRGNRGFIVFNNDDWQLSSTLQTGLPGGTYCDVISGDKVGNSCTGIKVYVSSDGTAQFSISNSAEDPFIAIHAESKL
Method: Alpha-amylase from porcine pancreas, alpha-glucosidase, glucoamylase and substrate (p-nitrophenyl-alpha-maltopentaoside) were purchased from Sigma. In the reaction, alpha-amylase (endo-type enzyme) hydrolysed the substrate into shorter chain glucosides and the auxiliary enzymes (exo-type enzymes) released the chromophore (p-nitrophenol) from the amylase-hydrolyzed malto-polysaccharides. For the assay, alpha-amylase (7.5 U/ml) was added to a substrate solution containing 1 mM p-nitrophenyl-alpha-maltopentaoside, 15 U/ml of alpha-glucosidase and 25 U/ml of glucoamylase in 50 mM HEPES buffer (pH 7.3) containing 3 mM CaCl2 and 40 mM NaCl. The reaction was carried out for 15 min at 37° C. in the presence vs. absence of flavonoids at concentrations ranged from 11.7 to 750 μg/ml. At the end of the incubation, 0.2 M borate, pH 9.8 was added to inactivate the enzymes and liberated p-nitrophenol was measured spectrophotometrically at 405 nm. The relative activity of alpha-amylase was calculated by subtracting reaction blanks containing the substrate, the two axillary enzymes and flavonoids at the same concentrations. The inhibitory activity was expressed as 100 minus relative absorbance difference between tested samples and controls.

[2] = target: T2, Alpha-glucosidase Type 1 from bakers yeast (Saccharomyces cerevisiae, UniProt P53341); experiment: Alpha-glucosidase assay; assay type: biochemical; details: for remaining activity at 15.6 µg/mL / remaining activity at 7.8 µg/mL / remaining activity at 31.3 µg/mL / remaining activity at 62.5 µg/mL / remaining activity at 125 µg/mL / remaining activity at 250 µg/mL / remaining activity at 500 µg/mL: read-out: alpha-glucosidase % control; for inhibition at 15.6 µg/mL / inhibition at 7.8 µg/mL / inhibition at 31.3 µg/mL / inhibition at 62.5 µg/mL / inhibition at 125 µg/mL / inhibition at 250 µg/mL / inhibition at 500 µg/mL: read-out: alpha-glucosidase % inhibition; for inhibition at 1600 µM: read-out: % inhibition of alpha-glucosidase at flavonoid concentration 1.6 mM (454 μg/mL)
T2 construct: purchased Sigma
T2 sequence (P53341 whole entry): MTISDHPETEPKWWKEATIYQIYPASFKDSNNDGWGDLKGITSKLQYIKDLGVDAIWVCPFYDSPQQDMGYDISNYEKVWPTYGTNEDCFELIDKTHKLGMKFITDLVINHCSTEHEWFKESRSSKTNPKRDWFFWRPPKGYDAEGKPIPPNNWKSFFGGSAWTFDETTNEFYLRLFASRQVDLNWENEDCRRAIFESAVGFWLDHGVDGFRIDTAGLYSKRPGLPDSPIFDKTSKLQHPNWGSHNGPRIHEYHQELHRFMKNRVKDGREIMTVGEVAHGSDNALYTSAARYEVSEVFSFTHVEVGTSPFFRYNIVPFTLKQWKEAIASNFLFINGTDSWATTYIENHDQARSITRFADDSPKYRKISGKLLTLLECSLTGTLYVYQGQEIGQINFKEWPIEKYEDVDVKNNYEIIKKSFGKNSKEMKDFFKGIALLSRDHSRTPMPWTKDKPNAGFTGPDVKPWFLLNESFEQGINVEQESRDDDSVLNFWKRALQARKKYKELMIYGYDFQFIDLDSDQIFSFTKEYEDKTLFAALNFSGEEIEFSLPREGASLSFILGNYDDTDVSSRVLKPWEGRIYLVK
Method: Alpha-glucosidase Type 1 from bakers yeast, substrate (p-nitrophenyl-alpha-D-glucopyranoside) and a control inhibitor, castanospermine were purchased from Sigma. For the assay, enzyme dissolved in 50 mM acetate buffer, pH 4.5 was incubated for 30 min, at 37° C. in the presence of substrate and in the presence vs. absence of inhibitors (flavonoids or castanospermine at various concentrations). The reaction was carried out in 50 mM acetate buffer, pH 4.5. Final concentration of alpha glucosidase was 0.2 U/ml; final concentration of the substrate was 2 mM. Flavonoids concentrations ranged from 7.8 to 500 μg/ml and castanospermine was used at final concentration 1 μg/ml. The reaction was stopped by addition of 0.2 M Na2CO3 and absorbance was measured at 405 nm. Background absorbance (without enzyme) was subtracted for every flavonoid concentration used. The inhibitory activity was expressed as 100 minus relative absorbance difference between tested samples and controls.

SMILES	remaining activity at 11.7 µg/mL ([1]; flavonoid conc. 11.7 μg/ml)	inhibition at 11.7 µg/mL ([1]; flavonoid conc. 11.7 μg/ml)	remaining activity at 23.4 µg/mL ([1]; flavonoid conc. 23.4 μg/ml)	inhibition at 23.4 µg/mL ([1]; flavonoid conc. 23.4 μg/ml)	remaining activity at 46.9 µg/mL ([1]; flavonoid conc. 46.9 μg/ml)	inhibition at 46.9 µg/mL ([1]; flavonoid conc. 46.9 μg/ml)	inhibition at 1600 µM [1]	inhibition at 1600 µM [2]	remaining activity at 7.8 µg/mL [2]	remaining activity at 31.3 µg/mL [2]	remaining activity at 62.5 µg/mL [2]	remaining activity at 125 µg/mL [2]	remaining activity at 250 µg/mL [2]	remaining activity at 500 µg/mL [2]	inhibition at 7.8 µg/mL [2]	inhibition at 31.3 µg/mL [2]	inhibition at 62.5 µg/mL [2]	inhibition at 125 µg/mL [2]	inhibition at 250 µg/mL [2]	inhibition at 500 µg/mL [2]	other results
O=c1cc(-c2ccc(O)cc2)oc2cc(O)cc(O)c12 [Apigenin, apigenin]	81%	19%	0%	100%	0%	100%	100%	100%	73.5%	68.4%	50.4%	29.5%	0%	0%	26.5%	31.6%	49.6%	70.5%	100%	100%	remaining activity at 93.8 µg/mL ([1]; flavonoid conc. 93.8 μg/ml): 0%; inhibition at 93.8 µg/mL ([1]; flavonoid conc. 93.8 μg/ml): 100%; remaining activity at 187.5 µg/mL ([1]; flavonoid conc. 187.5 μg/ml): 0%; inhibition at 187.5 µg/mL ([1]; flavonoid conc. 187.5 μg/ml): 100%; remaining activity at 375 µg/mL ([1]; flavonoid conc. 375.0 μg/ml): 0%; inhibition at 375 µg/mL ([1]; flavonoid conc. 375.0 μg/ml): 100%; remaining activity at 750 µg/mL ([1]; flavonoid conc. 750.0 μg/ml): 0%; inhibition at 750 µg/mL ([1]; flavonoid conc. 750.0 μg/ml): 100%; IC50 [2]: 220 µM; remaining activity at 15.6 µg/mL ([2]; flavonoid conc. 15.6 μg/mL): 74.3%; inhibition at 15.6 µg/mL ([2]; flavonoid conc. 15.6 μg/mL): 25.7%
O=c1cc(-c2ccc(O)c(O)c2)oc2cc(O)cc(O)c12 [Luteolin, luteolin]	0%	100%	0%	100%	0%	100%	100%	96%	81.4%	65.8%	45.7%	17.9%	19.1%	0%	18.6%	34.2%	54.3%	82.1%	80.9%	100%	remaining activity at 93.8 µg/mL ([1]; flavonoid conc. 93.8 μg/ml): 0%; inhibition at 93.8 µg/mL ([1]; flavonoid conc. 93.8 μg/ml): 100%; remaining activity at 187.5 µg/mL ([1]; flavonoid conc. 187.5 μg/ml): 0%; inhibition at 187.5 µg/mL ([1]; flavonoid conc. 187.5 μg/ml): 100%; remaining activity at 375 µg/mL ([1]; flavonoid conc. 375.0 μg/ml): 0%; inhibition at 375 µg/mL ([1]; flavonoid conc. 375.0 μg/ml): 100%; remaining activity at 750 µg/mL ([1]; flavonoid conc. 750.0 μg/ml): 0%; inhibition at 750 µg/mL ([1]; flavonoid conc. 750.0 μg/ml): 100%; inhibition of alpha-amylase at the lowest concentration tested ([1]; lowest concentration tested (11.7 μg/ml)): inhibiting the enzyme completely; IC50 ([1]; read-out: IC50 concentration, alpha-amylase (converted)): 20.3 µM; remaining activity at 15.6 µg/mL ([2]; flavonoid conc. 15.6 μg/mL): 60.2%; inhibition at 15.6 µg/mL ([2]; flavonoid conc. 15.6 μg/mL): 39.8%; IC50 ([2]; read-out: IC50 concentration, alpha-glucosidase (converted)): 180 µM
COc1cc(-c2cc(=O)c3c(O)cc(O)cc3o2)cc(OC)c1O [Tricin, tricin]							100%	100%	97.7%	15.6%	6.4%	0%	0%	0%	0.3%	84.4%	93.6%	100%	100%	100%	IC50 [1]: 30 µM; remaining activity at 11.7 µg/mL [1]: 40.9%; remaining activity at 23.4 µg/mL [1]: 18.2%; remaining activity at 46.9 µg/mL [1]: 0%; remaining activity at 93.8 µg/mL [1]: 0%; remaining activity at 187.5 µg/mL [1]: 0%; remaining activity at 375 µg/mL [1]: 0%; remaining activity at 750 µg/mL [1]: 0%; inhibition at 11.7 µg/mL [1]: 59.1%; inhibition at 23.4 µg/mL [1]: 81.8%; inhibition at 46.9 µg/mL [1]: 100%; inhibition at 93.8 µg/mL [1]: 100%; inhibition at 187.5 µg/mL [1]: 100%; inhibition at 375 µg/mL [1]: 100%; inhibition at 750 µg/mL [1]: 100%; IC50 [2]: 36.3 µM; remaining activity at 15.6 µg/mL [2]: 26.4%; inhibition at 15.6 µg/mL [2]: 73.6%
O[C@H]1[C@H](O)[C@@H](O)CN2CC[C@H](O)[C@H]12 [castanospermine, reference compound]																					activity of alpha-glucosidase reduced by ([2]; 1 μg/ml, control inhibitor): 32%
